Source: patent US6924143B2, “Method for increasing the growth rate of cells in static liquid media” (priority 2001, dated 2005)

Test system: U. maydis wildtype strains
Test: Growth-assay of U. maydis strains in 384 well MTPs (FIG. 3A, absorbance at OD620)
Format: cell-based, Ustilago maydis
Details: Hygromycin B 200 μg/ml, initial OD620 0,18, 1x minimal medium with 0,1% Kelzan, 30° C.
Protocol: FIG. 3 illustrates growth-assay of U. maydis strains in 384 well MTPs. • A: The kinetik of the absorbance at OD620 for U. maydis wildtype strains was determined in a 384 well MTP using a Tecan ultra reader (rombus). As control served a strain, to which Hygromycin B was added in a concentration of 200 μg/ml (crosses). The initial OD620 for both strains was 0,18. […] GFP fluorescence of a U. maydis strain, in which GFP expression is controlled by the strong constitutive OMA promoter (squares), was determined in a Tecan plus reader. The excitation wavelength was 485 nm, the emission wavelength was 535 nm. […] Compared to lower temperatures, the increase in OD620 and the increase in fluorescence was faster. Experimental procedures: U. maydis strains where treated as described before in the Examples. The solution contained 1×minimal medium, 0,1% Kelzan and the assay was performed at 30° C. All experiments where repeated in independent duplicates.

With `CN[C@H]1C[C@@H](N)[C@H](O)[C@@H](O[C@@H]2O[C@H](CO)[C@H](O)[C@@H]3OC4(O[C@H]23)O[C@H]([C@@H](N)CO)[C@H](O)[C@H](O)[C@H]4O)[C@@H]1O` (stereo partly shown) [Hygromycin B] the “course of optical density (OD620) over time” value was “continuous decrease in optical density”.
